Source: US11377442B2, “Small molecule agonists and antagonists of NR2F6 activity” (ZANDER THERAPEUTICS, INC., priority 2016, dated 2022)
Read-outs that look alike come from different tables or passages of the source. Blank lines part the entries; values can stand above or below the compound they belong to.

Experiments:
Assay type in all cases: cell-based
[1] = tested on: HEK293 pGL4; assay: Firefly_pGL signal, cmpd/DMSO (pGL4 control cells); conditions: Homo sapiens
[2] = molecular target: T1, NR2F6 (Homo sapiens, UniProt P10588); assay: NR2F6 agonist screening, Firefly signal cmpd/DMSO
T1 construct: expressed in transfected cells; also transient transfection
T1 sequence (P10588 1-404): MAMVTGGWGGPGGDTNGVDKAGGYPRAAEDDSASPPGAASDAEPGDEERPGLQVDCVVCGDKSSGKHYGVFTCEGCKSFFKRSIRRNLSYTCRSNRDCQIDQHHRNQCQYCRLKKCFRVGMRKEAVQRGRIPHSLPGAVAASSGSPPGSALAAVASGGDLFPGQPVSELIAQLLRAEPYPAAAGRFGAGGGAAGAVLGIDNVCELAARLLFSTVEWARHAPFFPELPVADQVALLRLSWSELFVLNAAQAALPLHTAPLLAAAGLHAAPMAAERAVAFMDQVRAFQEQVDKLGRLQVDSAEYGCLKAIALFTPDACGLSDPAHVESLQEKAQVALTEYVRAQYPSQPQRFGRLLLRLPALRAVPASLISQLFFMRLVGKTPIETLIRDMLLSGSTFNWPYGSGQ

[3] = molecular target: T2, NR2F6 LBD (Homo sapiens, UniProt P10588); assay: NR2F6 LBD transient transfection; conditions: LBD
T2 construct: expressed in transfected cells
T2 sequence (P10588 165-393 limits assumed): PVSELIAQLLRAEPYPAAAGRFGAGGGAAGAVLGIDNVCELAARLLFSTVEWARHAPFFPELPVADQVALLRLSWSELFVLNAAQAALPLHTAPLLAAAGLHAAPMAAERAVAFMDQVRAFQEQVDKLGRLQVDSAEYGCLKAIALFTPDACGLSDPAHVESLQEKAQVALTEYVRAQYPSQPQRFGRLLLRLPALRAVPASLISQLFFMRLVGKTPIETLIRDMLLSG
In short: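 LBD-transfected cells treated at 40, 10, 2 and 0.5 μM (4 replicates); cytotoxicity measured in parallel, normalized to DMSO (0%) and zero signal (100%). Higher concentrations excluded where signal loss reflected toxicity.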

[4] = tested on: Renilla; assay: Renilla signal in NR2F6 agonist screening, cmpd/DMSO; conditions: Renilla, F4
[5] = HEK293, 0.5 uM, pGL4, read-out: Firefly pGL4, cmpd/DMSO (mean)
[6] = HEK293, 2 uM, pGL4, read-out: Firefly pGL4, cmpd/DMSO (mean)
[7] = HEK293, 10 uM, pGL4, read-out: Firefly pGL4, cmpd/DMSO (mean)
[8] = HEK293, 40 uM, pGL4, read-out: Firefly pGL4, cmpd/DMSO (mean)
[9] = HEK293, pGL4, 1% FBS, 0.5 uM, read-out: Firefly, pGL4, 1% FBS, cmpd/DMSO (mean)
[10] = HEK293, pGL4, 1% FBS, 2 uM, read-out: Firefly, pGL4, 1% FBS, cmpd/DMSO (mean)
[11] = HEK293, pGL4, 1% FBS, 10 uM, read-out: Firefly, pGL4, 1% FBS, cmpd/DMSO (mean)
[12] = HEK293, pGL4, 1% FBS, 40 uM, read-out: Firefly, pGL4, 1% FBS, cmpd/DMSO (mean)
[13] = HEK293, pGL4, 10% FBS, 0.5 uM, read-out: Firefly, pGL4, 10% FBS, cmpd/DMSO (mean)
[14] = HEK293, pGL4, 10% FBS, 2 uM, read-out: Firefly, pGL4, 10% FBS, cmpd/DMSO (mean)
[15] = HEK293, pGL4, 10% FBS, 10 uM, read-out: Firefly, pGL4, 10% FBS, cmpd/DMSO (mean)
[16] = HEK293, pGL4, 10% FBS, 40 uM, read-out: Firefly, pGL4, 10% FBS, cmpd/DMSO (mean)
[17] = read-out: Renilla, F4, cmpd/DMSO (mean)
[18] = 1% FBS, read-out: Renilla, F4, 1% FBS, cmpd/DMSO (mean)
[19] = 10% FBS, read-out: Renilla, F4, 10% FBS, cmpd/DMSO (mean)

Firefly F4, cmpd/DMSO (mean) ([2]; 0.5 uM): 1.4
Firefly F4, cmpd/DMSO (mean) ([2]; 2 uM): 2.2
Firefly F4, cmpd/DMSO (mean) ([2]; 10 uM): 4.0
Firefly F4, cmpd/DMSO (mean) ([2]; 40 uM): 1.6
F4, Firefly/Renilla for S/B(F4) > 3 ([2]; 1% FBS, 10 uM): 2.3
Firefly, F4/pGL4 for S/B(F4) > 3 ([2]; 1% FBS, 10 uM): 1.8
F4, Firefly/Renilla for S/B(F4) > 3 ([2]; 10% FBS, 10 uM): 2.7
Firefly, F4/pGL4 for S/B(F4) > 3 ([2]; 10% FBS, 10 uM): 1.4
F4, Firefly/Renilla for S/B(F4) > 3 ([2]; 10% FBS, 40 uM): 2.4
Firefly, F4/pGL4 for S/B(F4) > 3 ([2]; 10% FBS, 40 uM): 2.0
Firefly, F4, 1% FBS, cmpd/DMSO (mean) ([2]; 1% FBS, 0.5 uM): 0.7
Firefly, F4, 1% FBS, cmpd/DMSO (mean) ([2]; 1% FBS, 2 uM): 1.2
Firefly, F4, 1% FBS, cmpd/DMSO (mean) ([2]; 1% FBS, 10 uM): 3.6
Firefly, F4, 1% FBS, cmpd/DMSO (mean) ([2]; 1% FBS, 40 uM): 0.6
Firefly, F4, 10% FBS, cmpd/DMSO (mean) ([2]; 10% FBS, 0.5 uM): 1.1
Firefly, F4, 10% FBS, cmpd/DMSO (mean) ([2]; 10% FBS, 2 uM): 1.2
Firefly, F4, 10% FBS, cmpd/DMSO (mean) ([2]; 10% FBS, 10 uM): 3.4
Firefly, F4, 10% FBS, cmpd/DMSO (mean) ([2]; 10% FBS, 40 uM): 5.0
Firefly LBD, cmpd/DMSO (mean) ([3]; 0.5 uM): 1.1
Firefly LBD, cmpd/DMSO (mean) ([3]; 2 uM): 1.7
Firefly LBD, cmpd/DMSO (mean) ([3]; 10 uM): 3.1
Firefly LBD, cmpd/DMSO (mean) ([3]; 40 uM): 0.7
Structure (SMILES): O=S1(=O)C[C@H](NC2CCCCCC2)[C@@H](S(=O)(=O)c2ccc(Cl)cc2)C1 [Compound D130]
fold induction at 0.5 µM [1, 5]: 1.2
fold induction at 2 µM [1, 6]: 1.8
fold induction at 10 µM [1, 7]: 3.4
fold induction at 40 µM [1, 8]: 0.6
fold induction at 0.5 µM [1, 9]: 1.2
fold induction at 2 µM [1, 10]: 2
fold induction at 10 µM [1, 11]: 2
fold induction at 40 µM [1, 12]: 0.9
fold induction at 0.5 µM [1, 13]: 1
fold induction at 2 µM [1, 14]: 1.6
fold induction at 10 µM [1, 15]: 2.5
fold induction at 40 µM [1, 16]: 2.5
fold induction at 0.5 µM [4, 17]: 1.1
fold induction at 2 µM [4, 17]: 1.2
fold induction at 10 µM [4, 17]: 1.5
fold induction at 40 µM [4, 17]: 1.8
fold induction at 0.5 µM [4, 18]: 1.1
fold induction at 2 µM [4, 18]: 1.2
fold induction at 10 µM [4, 18]: 1.6
fold induction at 40 µM [4, 18]: 1.9
fold induction at 0.5 µM [4, 19]: 0.8
fold induction at 2 µM [4, 19]: 0.9
fold induction at 10 µM [4, 19]: 1.3
fold induction at 40 µM [4, 19]: 2.1

Firefly F4, cmpd/DMSO (mean) ([2]; 0.5 uM): 1.5
Firefly F4, cmpd/DMSO (mean) ([2]; 2 uM): 1.9
Firefly F4, cmpd/DMSO (mean) ([2]; 10 uM): 5.5
Firefly F4, cmpd/DMSO (mean) ([2]; 40 uM): 1.1
F4, Firefly/Renilla for S/B(F4) > 3 ([2]; 1% FBS, 10 uM): 3.0
Firefly, F4/pGL4 for S/B(F4) > 3 ([2]; 1% FBS, 10 uM): 1.9
F4, Firefly/Renilla for S/B(F4) > 3 ([2]; 10% FBS, 10 uM): 2.0
Firefly, F4/pGL4 for S/B(F4) > 3 ([2]; 10% FBS, 10 uM): 1.2
F4, Firefly/Renilla for S/B(F4) > 3 ([2]; 10% FBS, 40 uM): 1.8
Firefly, F4/pGL4 for S/B(F4) > 3 ([2]; 10% FBS, 40 uM): 3.4
Firefly, F4, 1% FBS, cmpd/DMSO (mean) ([2]; 1% FBS, 0.5 uM): 0.7
Firefly, F4, 1% FBS, cmpd/DMSO (mean) ([2]; 1% FBS, 2 uM): 1.3
Firefly, F4, 1% FBS, cmpd/DMSO (mean) ([2]; 1% FBS, 10 uM): 5.0
Firefly, F4, 1% FBS, cmpd/DMSO (mean) ([2]; 1% FBS, 40 uM): 0.5
Firefly, F4, 10% FBS, cmpd/DMSO (mean) ([2]; 10% FBS, 0.5 uM): 0.9
Firefly, F4, 10% FBS, cmpd/DMSO (mean) ([2]; 10% FBS, 2 uM): 1.4
Firefly, F4, 10% FBS, cmpd/DMSO (mean) ([2]; 10% FBS, 10 uM): 3.3
Firefly, F4, 10% FBS, cmpd/DMSO (mean) ([2]; 10% FBS, 40 uM): 5.4
Activity, cmpd/DMSO ([2]; Table 31): 6.6
Firefly LBD, cmpd/DMSO (mean) ([3]; 0.5 uM): 1.1
Firefly LBD, cmpd/DMSO (mean) ([3]; 2 uM): 2.1
Firefly LBD, cmpd/DMSO (mean) ([3]; 10 uM): 4.3
Firefly LBD, cmpd/DMSO (mean) ([3]; 40 uM): 0.4
Structure (SMILES): CCCCN(C)[C@H]1CS(=O)(=O)C[C@@H]1S(=O)(=O)c1ccc(Cl)cc1 [Compound D132]
fold induction at 0.5 µM [1, 5]: 1.6
fold induction at 2 µM [1, 6]: 1.6
fold induction at 10 µM [1, 7]: 4.9
fold induction at 40 µM [1, 8]: 0.5
fold induction at 0.5 µM [1, 9]: 1
fold induction at 2 µM [1, 10]: 1.6
fold induction at 10 µM [1, 11]: 2.6
fold induction at 40 µM [1, 12]: 0.8
fold induction at 0.5 µM [1, 13]: 0.9
fold induction at 2 µM [1, 14]: 1.3
fold induction at 10 µM [1, 15]: 2.7
fold induction at 40 µM [1, 16]: 1.6
fold induction at 0.5 µM [4, 17]: 1
fold induction at 2 µM [4, 17]: 1.2
fold induction at 10 µM [4, 17]: 1.7
fold induction at 40 µM [4, 17]: 1.3
fold induction at 0.5 µM [4, 18]: 1.1
fold induction at 2 µM [4, 18]: 1.3
fold induction at 10 µM [4, 18]: 1.7
fold induction at 40 µM [4, 18]: 1.7
fold induction at 0.5 µM [4, 19]: 0.9
fold induction at 2 µM [4, 19]: 1.1
fold induction at 10 µM [4, 19]: 1.6
fold induction at 40 µM [4, 19]: 3
